Assay results reported in US11117947B2, “Double-acylated GLP-1 derivatives” (Novo Nordisk A/S, priority 2011, dated 2021).
Numbered stars: 1 amine (or outer) side, 2 acyl side, 3 side chain; on linkers, the order of the positions; unused ones are H or OH. Side chains are listed from the residue outwards. Peptide text beside a SMILES is read from it. * marks the point of attachment. Decanoyl(10-(4-HOOC-PhO)) = O=C(O)c1ccc(OCCCCCCCCCC(=O)*)cc1; γGlu = O=C(O)[C@H](CCC(=O)[*:2])N[*:1]; C14 diacid = O=C(O)CCCCCCCCCCCCC(=O)*; AEEA = NCCOCCOCC(=O)O

Assay: Estimate of oral bioavailability: gut injection in rat (caprate), exposure in plasma
Type: in vivo
Details: injection in jejunum, 1000 uM in 55 mg/ml sodium caprate, plasma concentration (pM) at 30 min divided by dosing solution concentration (μM), mean n=4
Method: The GLP-1 derivatives were tested in a concentration of 1000 uM in a solution of 55 mg/ml sodium caprate.
Male Sprague Dawley rats with a body weight upon arrival of approximately 240 g were obtained from Taconic (Denmark) and assigned to the different treatments by simple randomisation, 4 rats per group.
The GLP-1 derivatives were administered in the jejunum either in the proximal part (10 cm distal for the duodenum) or in the mid-intestine (50 cm proximal for the cecum). A PE50-catheter, 10 cm long was inserted into the jejunum, forwarded at least 1.5 cm into the jejunum, and secured before dosing by ligature around the gut and the catheter with 3/0 suture distal to tip to prevent leak or catheter displacement. Catheter was placed without syringe and needle and 2 ml saline was administered into abdomen before closing the incision with wound clips.
100 μl of the respective GLP-1 derivative was injected into the jejunal lumen through the catheter with a 1 ml syringe. Subsequently, 200 μl of air was pushed into the jejunal lumen with another syringe to “flush” the catheter. This syringe was leaved connected to the catheter to prevent flow back into the catheter.
Blood samples (200 ul) were collected at desired intervals (usually at times 0, 10, 30, 60, 120 and 240 min) into EDTA tubes from the tail vein and centrifuged 5 minutes, 10000G, at 4° C. within 20 minutes. […] 12, p. 240-247. The donor beads were coated with streptavidin, while acceptor beads were conjugated with a monoclonal antibody recognising a mid-/C-terminal epitope of the peptide. Another monoclonal antibody, specific for the N-terminus, was biotinylated. The three reactants were combined with the analyte and formed a two-sited immuno-complex. Illumination of the complex released singlet oxygen atoms from the donor beads, which were channeled into the acceptor beads and triggered chemiluminescence which was measured in an Envision plate reader. The amount of light was proportional to the concentration of the compound.
After the blood sampling the rats were sacrificed under anaesthesia and the abdomen was opened to verify correct catheter placement.
The mean (n=4) plasma concentrations (pmol/l) were determined as a function of time.

Row | Structure (SMILES) | Dose-corrected exposure at 30 min
1 | CC[C@H](C)[C@H](NC(=O)[C@H](Cc1ccccc1)NC(=O)[C@H](CCCCNC(=O)COCCOCCNC(=O)COCCOCCNC(=O)CC[C@H](NC(=O)CCCCCCCCCOc1ccc(C(=O)O)cc1)C(=O)O)NC(=O)[C@H](CCCNC(=N)N)NC(=O)[C@@H](NC(=O)[C@H](C)NC(=O)[C@H](CCC(N)=O)NC(=O)CNC(=O)[C@H](CCC(=O)O)NC(=O)[C@H](CC(C)C)NC(=O)[C@H](Cc1ccc(O)cc1)NC(=O)[C@H](CO)NC(=O)[C@H](CO)NC(=O)[C@@H](NC(=O)[C@H](CC(=O)O)NC(=O)[C@H](CO)NC(=O)[C@@H](NC(=O)[C@H](Cc1ccccc1)NC(=O)[C@@H](NC(=O)CNC(=O)[C@H](CCC(=O)O)NC(=O)[C@H](C)NC(=O)[C@@H](N)Cc1c[nH]cn1)[C@@H](C)O)[C@@H](C)O)C(C)C)C(C)C)C(=O)N[C@@H](CCC(=O)O)C(=O)N[C@@H](Cc1c[nH]c2ccccc12)C(=O)N[C@@H](CC(C)C)C(=O)N[C@H](C(=O)N[C@@H](CCCNC(=N)N)C(=O)NCC(=O)N[C@@H](CCCCNC(=O)COCCOCCNC(=O)COCCOCCNC(=O)CC[C@H](NC(=O)CCCCCCCCCOc1ccc(C(=O)O)cc1)C(=O)O)C(=O)NCC(=O)N[C@@H](CCC(N)=O)C(=O)O)C(C)C [Example 12, N^α(N^ε27-[2-[2-[2-[[2-[2-[2-[[(4S)-4-carboxy-4-[10-(4-carboxyphenoxy)decanoylamino]butanoyl]amino]ethoxy]ethoxy]acetyl]amino]ethoxy]ethoxy]acetyl], N^ε36-[2-[2-[2-[[2-[2-[2-[[(4S)-4-carboxy-4-[10-(4-carboxyphenoxy)decanoylamino]butanoyl]amino]ethoxy]ethoxy]acetyl]amino]ethoxy]ethoxy]acetyl]-[Val^25,Arg^26,Lys^27,Glu^30,Arg^34,Lys^36]-GLP-1-(7-37)-peptidyl)-Gln] (H-HAEGTFTSDVSSYLEGQAVRK([AEEA-AEEA-γGlu-Decanoyl(10-(4-HOOC-PhO))])FIEWLVRGK([AEEA-AEEA-γGlu-Decanoyl(10-(4-HOOC-PhO))])GQ-OH; N-terminus and C-terminus assumed) | 68
2 | CC[C@H](C)[C@H](NC(=O)[C@H](Cc1ccccc1)NC(=O)[C@H](CCCCNC(=O)COCCOCCNC(=O)COCCOCCNC(=O)CC[C@H](NC(=O)CCCCCCCCCOc1ccc(C(=O)O)cc1)C(=O)O)NC(=O)[C@H](CCCNC(=N)N)NC(=O)[C@H](C)NC(=O)[C@H](C)NC(=O)[C@H](CCC(N)=O)NC(=O)CNC(=O)[C@H](CCC(=O)O)NC(=O)[C@H](CC(C)C)NC(=O)[C@H](Cc1ccc(O)cc1)NC(=O)[C@H](CO)NC(=O)[C@H](CO)NC(=O)[C@@H](NC(=O)[C@H](CC(=O)O)NC(=O)[C@H](CO)NC(=O)[C@@H](NC(=O)[C@H](Cc1ccccc1)NC(=O)[C@@H](NC(=O)CNC(=O)[C@H](CCC(=O)O)NC(=O)[C@H](C)NC(=O)[C@@H](N)Cc1c[nH]cn1)[C@@H](C)O)[C@@H](C)O)C(C)C)C(=O)N[C@@H](CCC(=O)O)C(=O)N[C@@H](Cc1c[nH]c2ccccc12)C(=O)N[C@@H](CC(C)C)C(=O)N[C@H](C(=O)N[C@@H](CCCNC(=N)N)C(=O)NCC(=O)N[C@@H](CCCCNC(=O)COCCOCCNC(=O)COCCOCCNC(=O)CC[C@H](NC(=O)CCCCCCCCCOc1ccc(C(=O)O)cc1)C(=O)O)C(=O)NCC(=O)N[C@@H](CCC(=O)O)C(=O)O)C(C)C [Example 6, N^ε27-[2-[2-[2-[[2-[2-[2-[[(4S)-4-carboxy-4-[10-(4-carboxyphenoxy)decanoylamino]butanoyl]amino]ethoxy]ethoxy]acetyl]amino]ethoxy]ethoxy]acetyl], N^ε36-[2-[2-[2-[[2-[2-[2-[[(4S)-4-carboxy-4-[10-(4-carboxyphenoxy)decanoylamino]butanoyl]amino]ethoxy]ethoxy]acetyl]amino]ethoxy]ethoxy]acetyl]-[Arg^26,Lys^27,Glu^30,Arg^34,Lys^36]-GLP-1-(7-37)-peptidyl-Glu] (H-HAEGTFTSDVSSYLEGQAARK([AEEA-AEEA-γGlu-Decanoyl(10-(4-HOOC-PhO))])FIEWLVRGK([AEEA-AEEA-γGlu-Decanoyl(10-(4-HOOC-PhO))])GE-OH; N-terminus and C-terminus assumed) | 93
3 | CC[C@H](C)[C@H](NC(=O)[C@H](Cc1ccccc1)NC(=O)[C@H](CCCCNC(=O)CC[C@H](NC(=O)COCCOCCNC(=O)COCCOCCNC(=O)CCCCCCCCCCCCC(=O)O)C(=O)O)NC(=O)[C@H](CCCNC(=N)N)NC(=O)[C@H](C)NC(=O)[C@H](C)NC(=O)[C@H](CCC(N)=O)NC(=O)[C@H](CCCCNC(=O)CC[C@H](NC(=O)COCCOCCNC(=O)COCCOCCNC(=O)CCCCCCCCCCCCC(=O)O)C(=O)O)NC(=O)[C@H](CCC(=O)O)NC(=O)[C@H](CC(C)C)NC(=O)[C@H](Cc1ccc(O)cc1)NC(=O)[C@H](CO)NC(=O)[C@H](CO)NC(=O)[C@@H](NC(=O)[C@H](CC(=O)O)NC(=O)[C@H](CO)NC(=O)[C@@H](NC(=O)[C@H](Cc1ccccc1)NC(=O)[C@@H](NC(=O)CNC(=O)[C@H](CCC(=O)O)NC(=O)[C@H](C)NC(=O)[C@@H](N)Cc1c[nH]cn1)[C@@H](C)O)[C@@H](C)O)C(C)C)C(=O)N[C@@H](C)C(=O)N[C@@H](Cc1c[nH]cn1)C(=O)N[C@@H](CC(C)C)C(=O)N[C@H](C(=O)NCC(=O)O)C(C)C [Example 14, N^ε22-[(4S)-4-carboxy-4-[[2-[2-[2-[[2-[2-[2-(13-carboxytridecanoylamino)ethoxy]ethoxy]acetyl]amino]ethoxy]ethoxy]acetyl]amino]butanoyl], N^ε27-[(4S)-4-carboxy-4-[[2-[2-[2-[[2-[2-[2-(13-carboxytridecanoylamino)ethoxy]ethoxy]acetyl]amino]ethoxy]ethoxy]acetyl]amino]butanoyl]-[Lys^22,Arg^26,Lys^27,His^31,Gly^34]-GLP-1-(7-34)-peptide] (H-HAEGTFTSDVSSYLEK([γGlu-AEEA-AEEA-C14 diacid])QAARK([γGlu-AEEA-AEEA-C14 diacid])FIAHLVG-OH; N-terminus and C-terminus assumed) | 121
